In US20230256120A1, “DIAGNOSTIC AGENT FOR PANCREATIC FUNCTION” (HAMAMATSU PHOTONICS K.K., priority 2020, published 2023):

Tested on: MC-I in the pancreas
Test: PET measurement of [^18F]BCPP-BF accumulation in the pancreas of type II diabetes model rats
Assay type: in vivo, rat
Conditions: fatty rats versus lean rats; PET measurement method; after 5 weeks of age; FIG. 2(A)
From the text: Male Zucker Leprfa/Leprfa rats (hereinafter also referred to as “fatty rats”) that develop pathological conditions similar to type II diabetes of human adults and male Zucker Leprfa/+ rats (hereinafter also referred to as “lean rats”) as controls thereof were purchased from Charles River Laboratories Japan, Inc., and used for PET measurement at 5, 8, 16, and 26 weeks of age.
The rats were anesthetized with isoflurane and fixed in a gantry of an animal PET camera (SHR-38000, manufactured by Hamamatsu Photonics K.K.). […] After the completion of the PET measurement, a region of interest was set on the pancreas identified from an accumulated PET image 40 to 60 minutes after the administration of D-[^11C]MT, and the amount of [^18F]BCPP-BF accumulated in the region of interest was calculated. Subsequently, the calculated accumulation amount was normalized by the amount of radioactivity administered and the body weight of each individual and defined as an amount (amount (SUV) of radioactivity administered) of [^18F]BCPP-BF accumulated in the pancreas.
The pancreas was excised from each rat immediately after the completion of the PET measurement, and the weight of the excised pancreas was measured. Subsequently, the radioactivity of the excised pancreas was measured using a gamma counter (manufactured by PerkinElmer Inc., 1480 WIZARD). […]

- uptake (SUV) of [^18F]BCPP-BF in the pancreas: decreased
SMILES: CC(C)(C)n1ncc(OCc2ccc(OCCCC[18F])nc2)c(Cl)c1=O [[^18F]BCPP-BF]
